{"source": "paper PMC5069167", "about": "(Nature chemical biology, 2016)", "target": "T1, PolD (Streptomyces asoensis, UniProt C1IC31)", "T1 sequence (C1IC31 1-215)": "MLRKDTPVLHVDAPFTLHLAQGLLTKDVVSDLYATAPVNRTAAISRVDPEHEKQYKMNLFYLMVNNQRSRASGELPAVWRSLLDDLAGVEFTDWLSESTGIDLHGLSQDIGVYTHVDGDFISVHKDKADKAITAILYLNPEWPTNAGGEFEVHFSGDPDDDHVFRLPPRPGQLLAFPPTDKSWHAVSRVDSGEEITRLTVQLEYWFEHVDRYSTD", "assay": "binding and oxidation of alpha-KG, succinate detection by HR-MS", "format": "biochemical", "details": "Fe(II), ascorbate 5 mM, O2, pH 7.6, 25 °C"}
{"smiles": "O=C(O)CCC(=O)C(=O)O", "note": "[α-KG]", "values": [{"measurement": "binding and oxidation of alpha-KG, succinate detection by HR-MS", "value": "non-heme mono-iron center capable of binding and oxidizing α-KG"}]}
